Data from PMC5503158 (Cancer research, 2017).

Molecular target: Bax (Homo sapiens, UniProt Q07812)
Assay: competition fluorescence polarization assay with fluorescent Bak BH3 peptide
Format: binding

Chain of Bax (Q07812 whole entry): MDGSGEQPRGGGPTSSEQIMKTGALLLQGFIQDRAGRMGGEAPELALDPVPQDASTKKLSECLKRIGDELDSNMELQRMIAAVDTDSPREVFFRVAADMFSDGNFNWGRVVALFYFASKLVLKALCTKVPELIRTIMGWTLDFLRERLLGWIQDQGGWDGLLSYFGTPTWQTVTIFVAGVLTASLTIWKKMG

NCCOc1ccccc1C=C1c2ccccc2-c2ccc([N+](=O)[O-])cc21 [CYD-2-11]
Ki: 34.1 ± 8.54 nM
